From patent publication US7759101B2, “Ginsenoside glycosidases hydrolyzing ginsenoside sugar moieties and uses thereof” (priority 2000, dated 2010)

How the values were obtained:
[1] = test system: ginsenoside glycosidases from Tremella; assay: Hydrolysis of Rb1 with ginsenoside glycosidases from Tremella; type: biochemical, Tremella sp. FFCCDL-12 g; settings: 1% Rb1 in acetate buffer containing 20% ethanol, 40° C., 20 hours
Method: Tremella sp. FFCCDL-12 g (available from Food Fermentation Culture Collection of Dalian Institute of Light Industry) was cultured on a solid medium containing 125 g of ginseng powder, 374 g of wheat bran and 500 ml of water for 5 to 7 days. Then 2500 ml of 0.01 M acetate buffer pH 5.0 was added to the solid medium to stand for 2 hours. Insolubles were removed by centrifugation and approximately 2000 ml liquid was obtained. (NH4)2SO4 powder was added to the liquid with stirring to 70% saturation. The solution was stored at 4° C. overnight and centrifuged to collect the pellets. The pellets were resuspended and the suspension was dialyzed against 0.01M acetate buffer pH 5. Then the solution was diluted in 0.01 M acetate buffer to a volume of 150 ml. Impurities were removed by centrifugation, and crude enzyme solution was obtained.
10 ml of the enzyme solution was allowed to react with 10 ml of 1% Rb1 in acetate buffer containing 20% ethanol at 40° C. for 20 hours. […] The optimal reaction temperature for the enzymes is 50° C. and the optimal pH is pH 5.5.

[2] = test system: Enzymes from Animal Liver; assay: Hydrolysis of Rb1 with enzymes from animal liver; type: biochemical, bovine; settings: 1% Rb1 solution, pH 5, 20% ethanol, 40° C., 20 hours
Method: 100 g of bovine liver was minced and added to 300 ml of 0.01 M acetate buffer pH 5 for extraction under room temperature for two hours. The mixture was centrifuged and (NH4)2SO4 was added to the supernatant to 70% saturation to precipitate the enzymes. The mixture was stored at 4° C. overnight. Precipitates were collected by centrifugation and dialyzed against 0.01 M acetate buffer pH 5. Impurities were removed and 15 ml of enzyme solution was obtained. 10 ml of the enzyme solution was allowed to react with 10 ml of 1% Rb1 solution (in 0.01 M acetate buffer pH 5 containing 20% ethanol) at 40° C. for 20 hours.

[3] = test system: Enzymes from Plant Seeds—Almond; assay: Hydrolysis of Rb1 with enzymes from almond; type: biochemical; settings: 1% Rb1 solution, pH 5, 20% ethanol, 50° C., 14 hours
Method: 100 g of almond was ground and added to 300 ml of 0.01 M acetate buffer pH 5 for extraction under room temperature for two hours. The mixture was centrifuged. (NH4)2SO4 was added to the supernatant to 60% saturation to precipitate the enzymes. The mixture was stored at 4° C. overnight. Precipitates were collected by centrifugation and dialyzed against 0.01 M acetate buffer pH 5. Impurities were removed and 30 ml of enzyme solution was obtained. 10 ml of the enzyme solution was allowed to react with 10 ml of 1% Rb1 solution (in 0.01 M acetate buffer pH 5 containing 20% ethanol) at 50° C. for 14 hours.

[4] = test system: bacterial ginsenoside glycosidases; assay: Hydrolysis of Rd with ginsenoside glycosidases from bacteria; type: biochemical, Bacillus sp. JF; settings: 0.5% Rd in acetate buffer containing 20% ethanol, 70° C., 16 hours
Method: Thermophilic and aerobic Bacillus sp. JF (Fengxie Jin et al., J. Gen. Appl. Microbiol., 36, 415-434, 1990) was cultured with aeration and stirring in a medium containing 0.5% by weight of ginseng extracts, 1% by weight of wheat bran extracts and 0.3% tryptone with a pH of 7.2 at 60° C. for 36 hours. Cells were removed by centrifugation and 3000 ml of 95% ethanol was added to 1000 ml of the cell-free supernatant. The solution was allowed to stand at 4° C. overnight and then centrifuged to collect the pellets. The enzyme protein pellets were dissolved in 50 ml of 0.01M acetate buffer pH 5. Insoluble materials were removed by centrifugation and a crude enzyme solution was obtained.
10 ml of the enzyme solution was allowed to react with 10 ml of 0.5% Rd in acetate buffer containing 20% ethanol at 70° C. for 16 hours. […] The enzymes can also hydrolyze β-(1→2)-glucoside of Rg3 to give Rh2.

[5] = test system: Ginsenoside Glycosidases from Yeast; assay: Hydrolysis of Rd with ginsenoside glycosidases from yeast; type: biochemical, Candida sp. FFCCDL-2 g; settings: 0.5% Rd in acetate buffer, 60° C., 12 hours
Method: Candida sp. FFCCDL-2 g (available from Food Fermentation Culture Collection of Dalian Institute of Light Industry) was cultured with shaking at 30° C. for 56 hours in a medium containing 2% by weight of ginseng extracts and 8% by weight of malt extracts. Cells were removed by centrifugation, after which (NH4)2SO4 powder was added to 500 ml of the cell-free supernatant to 65% saturation. The solution was dialyzed against 0.01M acetate buffer pH 5. Insolubles were removed by centrifugation, and 25 ml of crude enzyme solution was obtained.
10 ml of the enzyme solution was allowed to react with 10 ml of 0.5% Rd in acetate buffer at 60° C. for 12 hours. […] The enzymes can also hydrolyze β-(1→2)-glucoside of Rg3 to give Rh2.

[6] = test system: ginsenoside glycosidase III from ginseng plant; assay: Hydrolysis of Rd with fraction 37 (ginsenoside glycosidase III) from ginseng plant; type: biochemical; settings: Fraction 37; substrate 0.5%; 50° C., pH 5.0, 18 hours
Method: 200 g of fresh ginseng root was cut into pieces and added to 600 ml of 0.02 M acetate buffer pH 5. Supernatant was obtained by filtration after the mixture stand at 40° C. for 2 hours. To the supernatant (NH4)2SO4 was added gradually until 70% saturation and the mixture stand overnight at 4° C. Then protein pellets were collected by centrifugation and redissolved in 15 ml of distilled water. The solution was dialyzed against 0.02 M Tris-HCl pH 7.4. Insolubles were removed by centrifugation and the volume of the supernatant was adjusted to 20 ml.
5 ml of the enzyme solution was subjected to a DEAE-Cellulose DE-25 column (Whatman, 1.4×6.7 cm). The column was eluted with a KCl gradient (0.06, 0.12, 0.18 and 0.24 M) in 0.02 M Tris-HCl pH 7.4. After elution, each fraction was tested for the activity of hydrolyzing ginsenosides. […] Fraction 52 can also hydrolyze the glucosidic bond at the twentieth carbon atom of Rb and Rc to give ginsenoside F2.

CC(C)=CCC[C@](C)(O[C@@H]1O[C@H](CO[C@@H]2O[C@H](CO)[C@@H](O)[C@H](O)[C@H]2O)[C@@H](O)[C@H](O)[C@H]1O)[C@H]1CC[C@]2(C)[C@@H]1[C@H](O)C[C@@H]1[C@@]3(C)CC[C@H](O[C@@H]4O[C@H](CO)[C@@H](O)[C@H](O)[C@H]4O[C@@H]4O[C@H](CO)[C@@H](O)[C@H](O)[C@H]4O)C(C)(C)[C@@H]3CC[C@]12C [Rb1, ginsenoside Rb1]
C-K in the product mixture [1]: 35% | F2 in the product mixture [1]: 40% | Rd in the product mixture [1]: 25% | Rb1 converted to ginsenosides with lower sugar contents [2]: 50% | Rb1 converted to ginsenosides with lower sugar contents [3]: 40%

CC(C)=CCC[C@](C)(O[C@@H]1O[C@H](CO)[C@@H](O)[C@H](O)[C@H]1O)[C@H]1CC[C@]2(C)[C@@H]1[C@H](O)C[C@@H]1[C@@]3(C)CC[C@H](O[C@@H]4O[C@H](CO)[C@@H](O)[C@H](O)[C@H]4O[C@@H]4O[C@H](CO)[C@@H](O)[C@H](O)[C@H]4O)C(C)(C)[C@@H]3CC[C@]12C [Rd, ginsenoside Rd]
Rd converted to ginsenoside F2 [4]: 60% | Rd converted to ginsenoside F2 [5]: 73% | Percentage of C—K in the reaction product [6]: 55% | Percentage of Rd in the reaction product [6]: 45%
